Reference: article PMC7236921, “γ-Secretase modulators exhibit selectivity for modulation of APP cleavage but inverse γ-secretase modulators do not” (Alzheimer's Research & Therapy, 2020)

Experiments:
[1] = target: T1, PS2 γ-secretase (PS2 membrane, PSEN1−/− PSEN2+/+) (Homo sapiens, UniProt P49810); test: cell-free cleavage of rC100sub, IP-MS of Abeta; assay type: biochemical; conditions: inverse modulator (iGSM), 100 μM; substrate rC100sub (APP C100); pH 6.5, 37 °C, 2 h
T1 construct: endogenous complex in CHAPSO-solubilized membrane of HEK 293T cells expressing only PS2; with Nicastrin; Gamma-secretase subunit APH-1A; Gamma-secretase subunit PEN-2

[2] = target: T2, PS1 γ-secretase (PS1 membrane, PSEN1+/+ PSEN2−/−) (Homo sapiens, UniProt P49768); test: cell-free cleavage of rC100sub, IP-MS of Abeta; assay type: biochemical; conditions: inverse modulator (iGSM), 100 μM; substrate rC100sub (APP C100); pH 6.5, 37 °C, 2 h
T2 construct: endogenous complex in CHAPSO-solubilized membrane of HEK 293T cells expressing only PS1; with Nicastrin; Gamma-secretase subunit APH-1A; Gamma-secretase subunit PEN-2

SMILES: CC(C)OC(=O)C(C)(C)Oc1ccc(C(=O)c2ccc(Cl)cc2)cc1 [fenofibrate]
- percentage change of Aβ38 [1]: iGSMs had an enhanced response when compared to WT
- percentage change of Aβ38 [2]: the iGSM treatment resulted in only slight changes in the peptides produced
